From patent US9023789B2, “Amylin analogs and pharmaceutical compositions thereof” (Novo Nordisk A/S, priority 2012, dated 2015)
Numbered stars: 1 amine (or outer) side, 2 acyl side, 3 side chain; on linkers, the order of the positions; unused ones are H or OH. Bridge positions count the residues as written; N and C are the ends. Side chains are listed from the residue outwards. Peptide text beside a SMILES is read from it. * marks the point of attachment. C20 diacid = O=C(O)CCCCCCCCCCCCCCCCCCC(=O)*; γGlu = O=C(O)[C@H](CCC(=O)[*:2])N[*:1]

Legend:
[1] = biological target: T1, human amylin 3(a) receptor (human calcitonin receptor + RAMP-3) in BHK570 cells (Homo sapiens, UniProt O60896+P30988); test: ASSAY (II)a functional assay, human amylin receptor (CRE luciferase); type: cell-based
T1 construct: expressed in transfected cells
Procedure, shortened: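 BHK CRE-luc cells, calcitonin (a) receptor ± RAMP-3 (amylin 3(a)); overnight seeding, 37° C/5% CO2. 3 h ligand exposure, DMEM/10% FBS/10 mM Hepes pH 7.4. LucLite 30 min RT; luminescence (SPC).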

[2] = ASSAY (III) ThT fibrillation assay for physical stability; type: physicochemical
Procedure, shortened: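 Formulations with 1 μM ThT, pH adjusted as required, incubated at 37 °C with 960 rpm orbital shaking; fluorescence (ex 444/em 485 nm) read every 20 min. Fibrillation reported as mean ThT fluorescence ± SD of 4–8 replicates at time points; polypeptide concentration measured by reverse-phase HPLC before and after, post-centrifugation.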

[3] = hCTR funct. EC50 divided by hAmylin-R funct. EC50
[4] = hCTR funct. EC50 over hAmylin-R funct. EC50
[5] = human functional selectivity: hCTR funct. EC50 / hAmylin-R funct. EC50
[6] = hCTR funct. EC50 / hAmylin-R funct. EC50

T1 sequence (O60896 24-148): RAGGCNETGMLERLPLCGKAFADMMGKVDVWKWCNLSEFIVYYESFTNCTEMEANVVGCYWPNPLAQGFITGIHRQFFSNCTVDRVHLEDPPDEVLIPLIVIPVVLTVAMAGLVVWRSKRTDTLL
T1 sequence (P30988 25-474): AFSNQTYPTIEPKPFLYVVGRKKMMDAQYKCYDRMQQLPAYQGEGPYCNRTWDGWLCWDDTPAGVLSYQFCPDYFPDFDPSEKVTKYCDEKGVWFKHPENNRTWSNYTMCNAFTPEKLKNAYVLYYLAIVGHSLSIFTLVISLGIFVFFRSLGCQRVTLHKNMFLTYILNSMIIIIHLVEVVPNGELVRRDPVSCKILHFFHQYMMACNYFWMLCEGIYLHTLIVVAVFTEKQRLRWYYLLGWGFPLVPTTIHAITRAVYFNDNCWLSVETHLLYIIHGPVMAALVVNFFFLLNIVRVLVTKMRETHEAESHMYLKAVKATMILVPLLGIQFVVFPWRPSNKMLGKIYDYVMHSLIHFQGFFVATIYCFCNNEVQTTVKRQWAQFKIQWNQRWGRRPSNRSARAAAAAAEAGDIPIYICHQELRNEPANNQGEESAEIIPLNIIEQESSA

SMILES | Ratio hCT/hAmylin funct. [1, 3] | Ratio hCT/hAmylin funct. [1, 4] | Ratio hCT/hAmylin funct. [1, 5] | ThT pH 4.0 lag time (h) [2] | Ratio hCT/hAmylin funct. [1, 6]
CC[C@H](C)[C@H](NC(=O)[C@H](C)NC(=O)CNC(=O)[C@H](Cc1ccccc1)NC(=O)[C@H](CC(N)=O)NC(=O)[C@@H]1CCCN1C(=O)[C@H](CO)NC(=O)[C@H](CO)NC(=O)[C@H](Cc1c[nH]cn1)NC(=O)[C@H](CCCNC(=N)N)NC(=O)[C@H](CC(C)C)NC(=O)[C@H](Cc1ccccc1)NC(=O)[C@H](CC(N)=O)NC(=O)[C@H](C)NC(=O)[C@H](CC(C)C)NC(=O)[C@H](CCCNC(=N)N)NC(=O)[C@H](CCC(N)=O)NC(=O)[C@@H](NC(=O)[C@H](C)NC(=O)[C@@H]1CSSC[C@H](NC(=O)[C@H](CCCCN)NC(=O)CC[C@H](NC(=O)CCCCCCCCCCCCCCCCCCC(=O)O)C(=O)O)C(=O)N[C@@H](CC(N)=O)C(=O)N[C@@H]([C@@H](C)O)C(=O)N[C@@H](C)C(=O)N[C@@H]([C@@H](C)O)C(=O)N1)[C@@H](C)O)C(=O)N1CCC[C@H]1C(=O)N[C@@H](CO)C(=O)N[C@@H](CO)C(=O)N[C@H](C(=O)N[C@@H](CC(N)=O)C(=O)N[C@H](C(=O)NCC(=O)N[C@@H](Cc1c[nH]cn1)C(=O)N[C@@H](CC(N)=O)C(=O)N[C@H](C(=O)N[C@@H](Cc1ccc(O)cc1)C(N)=O)[C@@H](C)O)C(C)C)[C@@H](C)O [Example 40] | 16.4 | 16.4 | 16.4 | 26 h | –
CC[C@H](C)[C@H](NC(=O)[C@H](C)NC(=O)CNC(=O)[C@H](Cc1ccccc1)NC(=O)[C@H](CC(N)=O)NC(=O)[C@@H]1CCCN1C(=O)[C@H](CO)NC(=O)[C@H](CO)NC(=O)[C@H](Cc1c[nH]cn1)NC(=O)[C@H](CCCNC(=N)N)NC(=O)[C@H](CC(C)C)NC(=O)[C@H](Cc1ccccc1)NC(=O)[C@H](CCC(=O)O)NC(=O)[C@H](C)NC(=O)[C@H](CC(C)C)NC(=O)[C@H](CCCNC(=N)N)NC(=O)[C@H](CCC(N)=O)NC(=O)[C@@H](NC(=O)[C@H](C)NC(=O)[C@@H]1CSSC[C@H](NC(=O)[C@@H](N)CCCCNC(=O)CC[C@H](NC(=O)CCCCCCCCCCCCCCCCCCC(=O)O)C(=O)O)C(=O)N[C@@H](CC(N)=O)C(=O)N[C@@H]([C@@H](C)O)C(=O)N[C@@H](C)C(=O)N[C@@H]([C@@H](C)O)C(=O)N1)[C@@H](C)O)C(=O)N1CCC[C@H]1C(=O)N[C@@H](CO)C(=O)N[C@@H](CO)C(=O)N[C@H](C(=O)N[C@@H](CC(N)=O)C(=O)N[C@H](C(=O)NCC(=O)N1CCC[C@H]1C(=O)N[C@@H](Cc1c[nH]cn1)C(=O)N[C@H](C(=O)N[C@@H](Cc1ccc(O)cc1)C(N)=O)[C@@H](C)O)C(C)C)[C@@H](C)O [Example 118] (H-K([γGlu-C20 diacid])CNTATCATQRLAEFLRHSSPNFGAIPSSTNVGPHTY-NH2; disulfide 2-7) | 14.4 | 14.4 | 14.4 | 45 h | –
CC[C@H](C)[C@H](NC(=O)[C@H](C)NC(=O)CNC(=O)[C@H](Cc1ccccc1)NC(=O)[C@H](CC(N)=O)NC(=O)[C@@H]1CCCN1C(=O)[C@H](CO)NC(=O)[C@H](CO)NC(=O)[C@H](Cc1c[nH]cn1)NC(=O)[C@H](CCCNC(=N)N)NC(=O)[C@H](CC(C)C)NC(=O)[C@H](Cc1ccccc1)NC(=O)[C@H](CCC(=O)O)NC(=O)[C@H](C)NC(=O)[C@H](CC(C)C)NC(=O)[C@H](CCCNC(=N)N)NC(=O)[C@H](CCC(N)=O)NC(=O)[C@@H](NC(=O)[C@H](C)NC(=O)[C@@H]1CSSC[C@H](NC(=O)[C@H](CCCCN)NC(=O)CC[C@H](NC(=O)CCCCCCCCCCCCCCCCCCC(=O)O)C(=O)O)C(=O)N[C@@H](CC(N)=O)C(=O)N[C@@H]([C@@H](C)O)C(=O)N[C@@H](C)C(=O)N[C@@H]([C@@H](C)O)C(=O)N1)[C@@H](C)O)C(=O)N1CCC[C@H]1C(=O)N[C@@H](CO)C(=O)N[C@@H](CO)C(=O)N[C@H](C(=O)N[C@@H](CC(N)=O)C(=O)N[C@H](C(=O)NCC(=O)N[C@@H](CO)C(=O)N[C@@H](CCC(=O)O)C(=O)N[C@H](C(=O)N[C@@H](Cc1ccc(O)cc1)C(N)=O)[C@@H](C)O)C(C)C)[C@@H](C)O [Example 22] ({C20 diacid-γGlu}-KCNTATCATQRLAEFLRHSSPNFGAIPSSTNVGSETY-NH2; disulfide 2-7) | 3.8 | 3.8 | 3.8 | 45 h | 3.8
CC[C@H](C)[C@H](NC(=O)[C@H](C)NC(=O)CNC(=O)[C@H](Cc1ccccc1)NC(=O)[C@H](CC(N)=O)NC(=O)[C@@H]1CCCN1C(=O)[C@H](CO)NC(=O)[C@H](CO)NC(=O)[C@H](Cc1c[nH]cn1)NC(=O)[C@H](CCCNC(=N)N)NC(=O)[C@H](CC(C)C)NC(=O)[C@H](Cc1ccccc1)NC(=O)[C@H](CCC(=O)O)NC(=O)[C@H](C)NC(=O)[C@H](CC(C)C)NC(=O)[C@H](CCCNC(=N)N)NC(=O)[C@H](CCC(N)=O)NC(=O)[C@@H](NC(=O)[C@H](C)NC(=O)[C@@H]1CSSC[C@H](NC(=O)[C@H](CCCCN)NC(=O)CC[C@H](NC(=O)CCCCCCCCCCCCCCCCCCC(=O)O)C(=O)O)C(=O)N[C@@H](CC(N)=O)C(=O)N[C@@H]([C@@H](C)O)C(=O)N[C@@H](C)C(=O)N[C@@H]([C@@H](C)O)C(=O)N1)[C@@H](C)O)C(=O)N1CCC[C@H]1C(=O)N[C@@H](CO)C(=O)N[C@@H](CO)C(=O)N[C@H](C(=O)N[C@@H](CC(N)=O)C(=O)N[C@H](C(=O)NCC(=O)N[C@@H](CO)C(=O)N[C@@H](CCCNC(=N)N)C(=O)N[C@H](C(=O)N[C@@H](Cc1ccc(O)cc1)C(N)=O)[C@@H](C)O)C(C)C)[C@@H](C)O [Example 16] ({C20 diacid-γGlu}-KCNTATCATQRLAEFLRHSSPNFGAIPSSTNVGSRTY-NH2; disulfide 2-7) | 6.1 | 6.1 | 6.1 | 45 h | –
CC[C@H](C)[C@H](NC(=O)[C@H](C)NC(=O)CNC(=O)[C@H](Cc1ccccc1)NC(=O)[C@H](CC(N)=O)NC(=O)[C@@H]1CCCN1C(=O)[C@H](CO)NC(=O)[C@H](CO)NC(=O)[C@H](Cc1c[nH]cn1)NC(=O)[C@H](CCCNC(=N)N)NC(=O)[C@H](CC(C)C)NC(=O)[C@H](Cc1ccccc1)NC(=O)[C@H](CCC(=O)O)NC(=O)[C@H](C)NC(=O)[C@H](CC(C)C)NC(=O)[C@H](CCCNC(=N)N)NC(=O)[C@H](CCC(N)=O)NC(=O)[C@@H](NC(=O)[C@H](C)NC(=O)[C@@H]1CSSC[C@H](NC(=O)[C@@H](N)CCCCNC(=O)CC[C@H](NC(=O)CCCCCCCCCCCCCCCCCCC(=O)O)C(=O)O)C(=O)N[C@@H](CC(N)=O)C(=O)N[C@@H]([C@@H](C)O)C(=O)N[C@@H](C)C(=O)N[C@@H]([C@@H](C)O)C(=O)N1)[C@@H](C)O)C(=O)N1CCC[C@H]1C(=O)N[C@@H](CO)C(=O)N[C@@H](CO)C(=O)N[C@H](C(=O)N[C@@H](CC(N)=O)C(=O)N[C@H](C(=O)NCC(=O)N[C@@H](CO)C(=O)N[C@@H](CC(N)=O)C(=O)N[C@H](C(=O)N1CCC[C@H]1C(N)=O)[C@@H](C)O)C(C)C)[C@@H](C)O [Example 12] (H-K([γGlu-C20 diacid])CNTATCATQRLAEFLRHSSPNFGAIPSSTNVGSNTP-NH2; disulfide 2-7 (inferred); N-terminus assumed) | 1.8 | 1.8 | 1.8 | 45 h | 1.8
CC[C@H](C)[C@H](NC(=O)[C@H](C)NC(=O)CNC(=O)[C@H](Cc1ccccc1)NC(=O)[C@H](CC(N)=O)NC(=O)[C@@H]1CCCN1C(=O)[C@H](CO)NC(=O)[C@H](CO)NC(=O)[C@H](Cc1c[nH]cn1)NC(=O)[C@H](CCCNC(=N)N)NC(=O)[C@H](CC(C)C)NC(=O)[C@H](Cc1ccccc1)NC(=O)[C@H](CCC(=O)O)NC(=O)[C@H](C)NC(=O)[C@H](CC(C)C)NC(=O)[C@H](CCCNC(=N)N)NC(=O)[C@H](CCC(N)=O)NC(=O)[C@@H](NC(=O)[C@H](C)NC(=O)[C@@H]1CSSC[C@H](NC(=O)[C@H](CCCCN)NC(=O)CC[C@H](NC(=O)CCCCCCCCCCCCCCCCCCC(=O)O)C(=O)O)C(=O)N[C@@H](CC(N)=O)C(=O)N[C@@H]([C@@H](C)O)C(=O)N[C@@H](C)C(=O)N[C@@H]([C@@H](C)O)C(=O)N1)[C@@H](C)O)C(=O)N1CCC[C@H]1C(=O)N[C@@H](CO)C(=O)N[C@@H](CO)C(=O)N[C@H](C(=O)N[C@@H](CC(N)=O)C(=O)N[C@H](C(=O)NCC(=O)N1CCC[C@H]1C(=O)N[C@@H](CC(N)=O)C(=O)N[C@H](C(=O)N[C@@H](Cc1ccc(O)cc1)C(N)=O)[C@@H](C)O)C(C)C)[C@@H](C)O [Example 32] ({C20 diacid-γGlu}-KCNTATCATQRLAEFLRHSSPNFGAIPSSTNVGPNTY-NH2; disulfide 2-7) | 6.6 | 6.6 | 6.6 | 45 h | –
